Measurements published in PubChem BioAssay (NCI).
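Protocol summary: plate cells (96-well), add compound at 5 concentrations, incubate 48 h, interpolate endpoints linearly. GI50: concentration for 50% inhibition of growth. TGI marks complete inhibition of growth.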

Tests used:
Assay in all cases: inhibition of tumour cell growth, NCI panel, 48 h
SK-MEL-5 melanoma = tested on: SK-MEL-5 melanoma
OVCAR-4 ovarian = tested on: OVCAR-4 ovarian
NCI-H460 lung = tested on: NCI-H460 lung
SF-539 CNS = tested on: SF-539 CNS
SF-295 CNS = tested on: SF-295 CNS
HCT-15 colon = tested on: HCT-15 colon
SK-OV-3 ovarian = tested on: SK-OV-3 ovarian
MOLT-4 leukemia = tested on: MOLT-4 leukemia
M19-MEL melanoma = tested on: M19-MEL melanoma
HT29 colon = tested on: HT29 colon

Work on `Oc1c(Br)cc2c(c1Br)-c1c(c(O)c3c4c1=NCCC=4C=N3)NCC2` yielded a TGI (SK-MEL-5 melanoma) of 23.2 µM, a TGI (OVCAR-4 ovarian) of 23.5 µM and a TGI (NCI-H460 lung) of 27.9 µM. It also gave a TGI (SF-539 CNS) of 26.5 µM, a TGI (SF-295 CNS) of 19.5 µM and a TGI (HCT-15 colon) of 30.6 µM. The TGI (SK-OV-3 ovarian) was 54.8 µM, the TGI (MOLT-4 leukemia) was 9.79 µM and the TGI (M19-MEL melanoma) was 8.82 µM. The TGI (HT29 colon) was 20.8 µM.
With `Brc1ccc2[nH]c3c(C4=NCCC4)nccc3c2c1` the TGI (SK-MEL-5 melanoma) was > 34.2 µM, the TGI (OVCAR-4 ovarian) was > 87.7 µM and the TGI (NCI-H460 lung) was > 32.8 µM. The TGI (SF-539 CNS) was > 25.4 µM, the TGI (SF-295 CNS) was > 36.7 µM and the TGI (HCT-15 colon) was > 69.2 µM. The TGI (SK-OV-3 ovarian) was > 100 µM, the TGI (MOLT-4 leukemia) was > 30.4 µM and the TGI (M19-MEL melanoma) was 84.4 µM. For the same molecule, the TGI (HT29 colon) was > 38.7 µM.
`N#C[S-].[La+3].c1ccc(-c2ccccn2)nc1.c1ccc(-c2ccccn2)nc1.c1ccc(-c2ccccn2)nc1` showed a GI50 (SK-MEL-5 melanoma) of 10.4 µM, a TGI (SK-MEL-5 melanoma) of 34.8 µM and a GI50 (OVCAR-4 ovarian) of 20.4 µM. For the same molecule, the TGI (OVCAR-4 ovarian) was > 100 µM, the GI50 (NCI-H460 lung) was 22.5 µM and the TGI (NCI-H460 lung) was 88.2 µM. The GI50 (SF-539 CNS) was 33.2 µM, the TGI (SF-539 CNS) was > 100 µM and the GI50 (SF-295 CNS) was 12.3 µM. The TGI (SF-295 CNS) was 71.3 µM, the GI50 (HCT-15 colon) was 7.07 µM and the TGI (HCT-15 colon) was > 100 µM. It also gave a GI50 (SK-OV-3 ovarian) of 31.7 µM, a TGI (SK-OV-3 ovarian) of 99.6 µM and a GI50 (MOLT-4 leukemia) of 10.5 µM. The TGI (MOLT-4 leukemia) was > 100 µM, the GI50 (M19-MEL melanoma) was 38 µM and the TGI (M19-MEL melanoma) was > 100 µM. For the same molecule, the GI50 (HT29 colon) was 18.7 µM and the TGI (HT29 colon) was > 100 µM.
